{"source": "ChEMBL document CHEMBL4715769", "about": "“Discovery of a novel chimeric ubenimex-gemcitabine with potent oral antitumor activity” (Bioorg Med Chem, 2016)", "key": {"U-937": {"tested_on": "U-937", "experiment": "cells", "conditions": "Homo sapiens, U-937, 48 h", "description": "Antiproliferative activity against human U937 cells after 48 hrs by MTT assay"}, "PC-3": {"tested_on": "PC-3", "experiment": "cells", "conditions": "Homo sapiens, PC-3, 48 h", "description": "Antiproliferative activity against human PC-3 cells after 48 hrs by MTT assay"}, "PLC-PRF-5 [1]": {"tested_on": "PLC-PRF-5", "experiment": "Induction of apoptosis in human PLC-PRF-5 cells assessed as necrotic cells at 2 uM after 48 hrs by Annexin V-FITC/propidium iodide staining-based flow cytometric analysis (reference value: 6.1 %)", "type": "functional"}, "Aminopeptidase N": {"target": "T1, Aminopeptidase N (Sus scrofa, UniProt P15145)", "T1 sequence (P15145 whole entry)": "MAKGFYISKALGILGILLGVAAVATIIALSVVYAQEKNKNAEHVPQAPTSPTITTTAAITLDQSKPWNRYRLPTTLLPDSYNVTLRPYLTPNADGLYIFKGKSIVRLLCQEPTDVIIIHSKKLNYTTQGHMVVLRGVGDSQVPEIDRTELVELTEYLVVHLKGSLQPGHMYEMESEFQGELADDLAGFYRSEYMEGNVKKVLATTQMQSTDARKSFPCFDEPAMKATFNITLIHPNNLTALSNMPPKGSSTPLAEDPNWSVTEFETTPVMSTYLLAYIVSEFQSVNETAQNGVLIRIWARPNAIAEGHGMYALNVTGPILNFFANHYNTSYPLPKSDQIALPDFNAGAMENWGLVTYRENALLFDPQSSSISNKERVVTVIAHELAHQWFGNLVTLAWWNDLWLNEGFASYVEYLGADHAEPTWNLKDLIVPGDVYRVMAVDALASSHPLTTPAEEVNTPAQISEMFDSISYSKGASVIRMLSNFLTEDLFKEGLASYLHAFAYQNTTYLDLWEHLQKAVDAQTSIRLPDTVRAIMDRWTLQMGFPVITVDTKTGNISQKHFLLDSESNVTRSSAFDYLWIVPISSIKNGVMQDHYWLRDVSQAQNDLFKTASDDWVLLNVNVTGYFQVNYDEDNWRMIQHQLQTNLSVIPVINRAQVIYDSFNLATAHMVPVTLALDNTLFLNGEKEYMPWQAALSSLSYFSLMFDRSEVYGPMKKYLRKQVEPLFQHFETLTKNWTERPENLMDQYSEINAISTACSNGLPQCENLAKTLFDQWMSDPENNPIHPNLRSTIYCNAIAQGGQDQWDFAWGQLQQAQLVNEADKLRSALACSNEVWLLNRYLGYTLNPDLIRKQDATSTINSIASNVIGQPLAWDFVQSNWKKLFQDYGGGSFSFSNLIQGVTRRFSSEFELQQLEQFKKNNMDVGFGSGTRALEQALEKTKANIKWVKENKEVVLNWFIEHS", "experiment": "Inhibition of porcine kidney microsomal CD13 using L-leucine-p-nitroanilide as substrate preincubated for 5 mins followed by substrate addition and measured after 30 mins by microplate reader analysis", "type": "microsomes, Microsome"}, "PLC-PRF-5 [2]": {"tested_on": "PLC-PRF-5", "experiment": "Antitumor activity against human PLC-PRF-5 cells xenografted in BALB/c nude mouse assessed as inhibition of tumor growth by measuring T/C ratio at 25 mg/kg, po", "type": "functional"}, "K562": {"tested_on": "K562", "experiment": "cells", "conditions": "Homo sapiens, K562, 48 h"}, "PLC-PRF-5 [3]": {"tested_on": "PLC-PRF-5", "experiment": "Antiproliferative activity against human PLC-PRF-5 cells after 48 hrs by MTT assay", "conditions": "PLC-PRF-5, 48 h"}, "[4]": {"experiment": "Antiproliferative activity against human ES2 cells after 48 hrs by MTT assay", "conditions": "ES-2, 48 h"}, "KG-1": {"tested_on": "KG-1", "experiment": "Antiproliferative activity against human KG1 cells after 48 hrs by MTT assay", "conditions": "KG-1, 48 h"}, "HepG2": {"tested_on": "HepG2", "conditions": "Homo sapiens, dose 25.0 mg/kg", "description": "Antitumor activity against human HepG2 cells xenografted in BALB/c nude mouse assessed as inhibition of tumor growth at 25 mg/kg, po"}, "Aorta": {"tested_on": "Aorta", "experiment": "Antiangiogenic activity in Wistar rat thoracic aortic rings assessed as decrease in number of microvessels sprouting at 20 ug/ml treated every other day for 9 days", "type": "functional, tissue-based", "conditions": "dose 20.0 µg/ml, time 9.0 day"}, "[5]": {"experiment": "Antiproliferative activity against human 3AO cells after 48 hrs by MTT assay"}, "U-266": {"tested_on": "U-266", "experiment": "Antiproliferative activity against human U266 cells after 48 hrs by MTT assay", "conditions": "U-266, 48 h"}, "L02": {"tested_on": "L02", "experiment": "Antiproliferative activity against human HL7702 cells after 48 hrs by MTT assay", "conditions": "L02, 48 h"}, "PLC-PRF-5 [6]": {"tested_on": "PLC-PRF-5", "experiment": "Induction of apoptosis in human PLC-PRF-5 cells assessed as late apoptotic cells at 2 uM after 48 hrs by Annexin V-FITC/propidium iodide staining-based flow cytometric analysis (reference value: 8.7 %)", "type": "functional"}, "A549": {"tested_on": "A549", "experiment": "cells", "conditions": "Homo sapiens, A549, 48 h"}, "HeLa": {"tested_on": "HeLa", "experiment": "cells", "conditions": "Homo sapiens, 48 h"}, "[7]": {"experiment": "Prodrug conversion in human plasma assessed as release of active metabolites GEM and Ube measured within 120 mins at 37 degC by HPLC analysis", "type": "ADME, cell-free", "conditions": "2 h"}, "PLC-PRF-5 [8]": {"tested_on": "PLC-PRF-5", "experiment": "Inhibition of colony formation in human PLC-PRF-5 cells assessed as reduction in number of colonies at 0.2 uM after 2 weeks by Giemsa staining based inverted microscopic analysis", "type": "functional, cell-based"}, "HUVEC": {"tested_on": "HUVEC", "experiment": "Antiangiogenic activity in HUVEC assessed as inhibition of capillary like tubular formation at 30 uM after 8 hrs by matrigel based tube formation assay", "type": "functional", "conditions": "Homo sapiens"}, "HEL": {"tested_on": "HEL", "experiment": "cells", "conditions": "Homo sapiens, 48 h", "description": "Antiproliferative activity against human HEL cells after 48 hrs by MTT assay"}, "H22 [9]": {"tested_on": "H22", "experiment": "Antitumor activity against mouse H22 cells transplanted in Kunming mouse assessed as tumor growth inhibition at 25 mg/kg, po administered every 4 days for 4 doses", "type": "functional, organism-based", "conditions": "time 4.0 day"}, "MDA-MB-231": {"tested_on": "MDA-MB-231", "experiment": "Antiproliferative activity against human MDA-MB-231 cells after 48 hrs by MTT assay", "conditions": "MDA-MB-231, 48 h"}, "PLC-PRF-5 [10]": {"tested_on": "PLC-PRF-5", "experiment": "Antitumor activity against human PLC-PRF-5 cells xenografted in BALB/c nude mouse assessed as inhibition of tumor growth by measuring T/C ratio at 25 mg/kg, ip", "type": "functional"}, "H22 [11]": {"tested_on": "H22", "experiment": "Antitumor activity against mouse H22 cells transplanted in Kunming mouse assessed as tumor growth inhibition at 25 mg/kg, ip administered every 4 days for 4 doses", "type": "functional, organism-based", "conditions": "time 4.0 day"}}, "note": "Activity calls are given as the source filed them. The calls are words filed in the database; no cut-off is given here."}
{"compound": "CC(C)C[C@H](NC(=O)[C@@H](O)[C@H](N)Cc1ccccc1)C(=O)Nc1ccn([C@@H]2O[C@H](CO)[C@@H](O)C2(F)F)c(=O)n1.Cl", "values": [{"measurement": "IC50", "setting": "U-937", "value": 0.08, "unit": "µM"}, {"measurement": "IC50", "setting": "PC-3", "value": 0.26, "unit": "µM"}, {"measurement": "Activity", "setting": "PLC-PRF-5 [1]", "value": 10.7, "unit": "%"}, {"measurement": "IC50", "setting": "Aminopeptidase N", "value": 8.75, "unit": "µM"}, {"measurement": "T/C", "setting": "PLC-PRF-5 [2]", "value": 51, "unit": "%"}, {"measurement": "IC50", "setting": "K562", "value": 0.13, "unit": "µM"}, {"measurement": "IC50", "setting": "PLC-PRF-5 [3]", "value": 1.41, "unit": "µM"}, {"measurement": "IC50", "setting": "[4]", "value": 0.28, "unit": "µM"}, {"measurement": "IC50", "setting": "KG-1", "value": 0.82, "unit": "µM"}, {"measurement": "inhibition", "setting": "HepG2", "value": "Active"}, {"measurement": "Activity", "setting": "Aorta", "value": "Active"}, {"measurement": "IC50", "setting": "[5]", "value": 9.73, "unit": "µM"}, {"measurement": "IC50", "setting": "U-266", "value": 0.26, "unit": "µM"}, {"measurement": "IC50", "setting": "L02", "value": 22.1, "unit": "µM"}, {"measurement": "Activity", "setting": "PLC-PRF-5 [6]", "value": 18.4, "unit": "%"}, {"measurement": "IC50", "setting": "A549", "value": 0.66, "unit": "µM"}, {"measurement": "IC50", "setting": "HeLa", "value": 5.48, "unit": "µM"}, {"measurement": "Drug metabolism", "setting": "[7]", "value": "Metabolite_Detected"}, {"measurement": "Activity", "setting": "PLC-PRF-5 [8]", "value": "Active"}, {"measurement": "inhibition at 30 µM", "setting": "HUVEC", "value": 100, "unit": "%"}, {"measurement": "IC50", "setting": "HEL", "value": 0.61, "unit": "µM"}, {"measurement": "growth inhibition (GI)", "setting": "H22 [9]", "value": "Active"}, {"measurement": "IC50", "setting": "MDA-MB-231", "value": 1.56, "unit": "µM"}]}
{"compound": "Nc1ccn([C@@H]2O[C@H](CO)[C@@H](O)C2(F)F)c(=O)n1", "note": "[GEMCITABINE]", "values": [{"measurement": "IC50", "setting": "U-937", "value": 0.07, "unit": "µM"}, {"measurement": "T/C", "setting": "PLC-PRF-5 [10]", "value": 54, "unit": "%"}, {"measurement": "IC50", "setting": "PC-3", "value": 0.22, "unit": "µM"}, {"measurement": "Activity", "setting": "PLC-PRF-5 [1]", "value": 25, "unit": "%"}, {"measurement": "IC50", "setting": "K562", "value": 0.11, "unit": "µM"}, {"measurement": "IC50", "setting": "PLC-PRF-5 [3]", "value": 1.53, "unit": "µM"}, {"measurement": "IC50", "setting": "[4]", "value": 0.53, "unit": "µM"}, {"measurement": "IC50", "setting": "KG-1", "value": 0.86, "unit": "µM"}, {"measurement": "IC50", "setting": "[5]", "value": 5.73, "unit": "µM"}, {"measurement": "IC50", "setting": "U-266", "value": 0.22, "unit": "µM"}, {"measurement": "IC50", "setting": "L02", "value": 5.43, "unit": "µM"}, {"measurement": "Activity", "setting": "PLC-PRF-5 [6]", "value": 18, "unit": "%"}, {"measurement": "IC50", "setting": "A549", "value": 0.26, "unit": "µM"}, {"measurement": "growth inhibition (GI)", "setting": "H22 [11]", "value": "Active"}, {"measurement": "IC50", "setting": "HeLa", "value": 2.74, "unit": "µM"}, {"measurement": "IC50", "setting": "HEL", "value": 0.48, "unit": "µM"}, {"measurement": "IC50", "setting": "MDA-MB-231", "value": 1.67, "unit": "µM"}]}
{"compound": "CC(C)C[C@H](NC(=O)[C@@H](O)[C@H](N)Cc1ccccc1)C(=O)O", "note": "[UBENIMEX]", "values": [{"measurement": "Activity", "setting": "PLC-PRF-5 [1]", "value": 7.1, "unit": "%"}, {"measurement": "IC50", "setting": "PLC-PRF-5 [3]", "value": "> 500", "unit": "µM"}, {"measurement": "IC50", "setting": "[4]", "value": "> 500", "unit": "µM"}, {"measurement": "IC50", "setting": "KG-1", "value": "> 500", "unit": "µM"}, {"measurement": "IC50", "setting": "[5]", "value": "> 500", "unit": "µM"}, {"measurement": "IC50", "setting": "U-266", "value": "> 500", "unit": "µM"}, {"measurement": "Activity", "setting": "PLC-PRF-5 [6]", "value": 11, "unit": "%"}, {"measurement": "IC50", "setting": "HeLa", "value": "> 500", "unit": "µM"}, {"measurement": "IC50", "setting": "HEL", "value": "> 500", "unit": "µM"}, {"measurement": "IC50", "setting": "MDA-MB-231", "value": "> 500", "unit": "µM"}]}
